{"source": "patent US9630977B2", "about": "“Cephalosporin derivatives and pharmaceutical compositions thereof” (Legochem Biosciences, Inc., priority 2011, dated 2017)"}
{"test_system": "A. baumannii 46", "test": "In vitro antibacterial activity test (broth microdilution)", "type": "cell-based", "conditions": "Acinetobacter baumannii; A. baumannii 46; read-out: MIC90", "protocol": "(§1) To evaluate antibacterial activity of each of the compounds of Examples 1 to 68, in vitro antibacterial activity test was performed.\n(§2) The in vitro antibacterial activity was evaluated by measuring MIC90 (ug/mL) of each of the compounds of Examples 1 to 68, which is defined as the lowest concentration of an antibiotic that will inhibit the visible growth of 90% of microorganisms after incubation as compared with a control group to which the antibiotic is not treated. MIC90 values were measured by the broth microdilution method developed by the Clinical and Laboratory Standards Institute (CLSI) (see CLSI M7-A5, Methods for Dilution Antimicrobial Susceptibility Test for Bacteria that Grow Aerobically-Fifth Edition (2000): CLSI, Villanova, Pa.).\n(§3) In vitro antibacterial activity was measured with respect to the following 19 clinical isolates: M. catarrhalis; P. aeruginosa (5 strains); K. pneumoniae (6 strains); A. baumannii (3 strains); E. coli (2 strains); A. calcoaceticus; and E. cloacae.\n(§4) Test compounds each (the cephalosporin derivative compounds prepared in Examples 1 to 68) were dissolved in DMSO at the concentration of 10,240 ug/mL, were diluted by two fold with DMSO, and then were diluted by twenty fold with sterilized distilled water. The final concentration in the antibacterial activity test was in the range of […] to 128 ug/mL, and the final concentration of DMSO used as an adjuvant was 2.5% (V/V).", "units": {"MIC90": "µg/mL"}}
{"smiles": "CC(C)(O/N=C(\\C(=O)N[C@@H]1C(=O)N2C(C(=O)[O-])=C(/C=C/C[n+]3cnc(N)c(NC(=O)CCNC(=O)c4cc(=O)c(O)cn4O)c3)CSC12)c1csc(N)n1)C(=O)O", "note": "(stereo partly shown) [Compound 12]", "MIC90": 4}
{"test_system": "A. baumannii 49", "test": "In vitro antibacterial activity test (broth microdilution)", "type": "cell-based", "conditions": "Acinetobacter baumannii; A. baumannii 49; read-out: MIC90", "protocol": "as §1, §2, §3, §4", "units": {"MIC90": "µg/mL"}}
{"smiles": "CC(C)(O/N=C(\\C(=O)N[C@@H]1C(=O)N2C(C(=O)[O-])=C(/C=C/C[n+]3cnc(N)c(NC(=O)CCNC(=O)c4cc(=O)c(O)cn4O)c3)CSC12)c1csc(N)n1)C(=O)O", "note": "(stereo partly shown) [Compound 12]", "MIC90": "> 128"}
{"test_system": "A. baumannii 52", "test": "In vitro antibacterial activity test (broth microdilution)", "type": "cell-based", "conditions": "Acinetobacter baumannii; A. baumannii 52; read-out: MIC90", "protocol": "as §1, §2, §3, §4", "units": {"MIC90": "µg/mL"}}
{"smiles": "CC(C)(O/N=C(\\C(=O)N[C@@H]1C(=O)N2C(C(=O)[O-])=C(/C=C/C[n+]3cnc(N)c(NC(=O)CCNC(=O)c4cc(=O)c(O)cn4O)c3)CSC12)c1csc(N)n1)C(=O)O", "note": "(stereo partly shown) [Compound 12]", "MIC90": "> 128"}
{"test_system": "A. calcoaceticus ATCC15473", "test": "In vitro antibacterial activity test (broth microdilution)", "type": "cell-based", "conditions": "Acinetobacter calcoaceticus; A. calcoaceticus ATCC15473; read-out: MIC90", "protocol": "as §1, §2, §3, §4", "units": {"MIC90": "µg/mL"}}
{"smiles": "CC(C)(O/N=C(\\C(=O)N[C@@H]1C(=O)N2C(C(=O)[O-])=C(/C=C/C[n+]3cnc(N)c(NC(=O)CCNC(=O)c4cc(=O)c(O)cn4O)c3)CSC12)c1csc(N)n1)C(=O)O", "note": "(stereo partly shown) [Compound 12]", "MIC90": 1}
{"test_system": "E. cloacae β19", "test": "In vitro antibacterial activity test (broth microdilution)", "type": "cell-based", "conditions": "Enterobacter cloacae, read-out: MIC90", "protocol": "as §1, §2, §3, §4", "units": {"MIC90": "µg/mL"}}
{"smiles": "CC(C)(O/N=C(\\C(=O)N[C@@H]1C(=O)N2C(C(=O)[O-])=C(/C=C/C[n+]3cnc(N)c(NC(=O)CCNC(=O)c4cc(=O)c(O)cn4O)c3)CSC12)c1csc(N)n1)C(=O)O", "note": "(stereo partly shown) [Compound 12]", "MIC90": 4}
{"test_system": "E. coli AG100", "test": "In vitro antibacterial activity test (broth microdilution)", "type": "cell-based", "conditions": "Escherichia coli, AG100, E. coli AG100; read-out: MIC90", "protocol": "as §1, §2, §3, §4", "units": {"MIC90": "µg/mL"}}
{"smiles": "CC(C)(O/N=C(\\C(=O)N[C@@H]1C(=O)N2C(C(=O)[O-])=C(/C=C/C[n+]3cnc(N)c(NC(=O)CCNC(=O)c4cc(=O)c(O)cn4O)c3)CSC12)c1csc(N)n1)C(=O)O", "note": "(stereo partly shown) [Compound 12]", "MIC90": 0.25}
{"test_system": "E. coli β4", "test": "In vitro antibacterial activity test (broth microdilution)", "type": "cell-based", "conditions": "Escherichia coli, read-out: MIC90", "protocol": "as §1, §2, §3, §4", "units": {"MIC90": "µg/mL"}}
{"smiles": "CC(C)(O/N=C(\\C(=O)N[C@@H]1C(=O)N2C(C(=O)[O-])=C(/C=C/C[n+]3cnc(N)c(NC(=O)CCNC(=O)c4cc(=O)c(O)cn4O)c3)CSC12)c1csc(N)n1)C(=O)O", "note": "(stereo partly shown) [Compound 12]", "MIC90": 0.25}
{"test_system": "K. pneumoniae 2011E", "test": "In vitro antibacterial activity test (broth microdilution)", "type": "cell-based", "conditions": "Klebsiella pneumoniae, 2011E, K. pneumoniae 2011E; read-out: MIC90", "protocol": "as §1, §2, §3, §4", "units": {"MIC90": "µg/mL"}}
{"smiles": "CC(C)(O/N=C(\\C(=O)N[C@@H]1C(=O)N2C(C(=O)[O-])=C(/C=C/C[n+]3cnc(N)c(NC(=O)CCNC(=O)c4cc(=O)c(O)cn4O)c3)CSC12)c1csc(N)n1)C(=O)O", "note": "(stereo partly shown) [Compound 12]", "MIC90": 2}
{"test_system": "K. pneumoniae β10", "test": "In vitro antibacterial activity test (broth microdilution)", "type": "cell-based", "conditions": "Klebsiella pneumoniae; K. pneumoniae β10; read-out: MIC90", "protocol": "as §1, §2, §3, §4", "units": {"MIC90": "µg/mL"}}
{"smiles": "CC(C)(O/N=C(\\C(=O)N[C@@H]1C(=O)N2C(C(=O)[O-])=C(/C=C/C[n+]3cnc(N)c(NC(=O)CCNC(=O)c4cc(=O)c(O)cn4O)c3)CSC12)c1csc(N)n1)C(=O)O", "note": "(stereo partly shown) [Compound 12]", "MIC90": 0.25}
{"test_system": "K. pneumoniae β11", "test": "In vitro antibacterial activity test (broth microdilution)", "type": "cell-based", "conditions": "Klebsiella pneumoniae; K. pneumoniae β11; read-out: MIC90", "protocol": "as §1, §2, §3, §4", "units": {"MIC90": "µg/mL"}}
{"smiles": "CC(C)(O/N=C(\\C(=O)N[C@@H]1C(=O)N2C(C(=O)[O-])=C(/C=C/C[n+]3cnc(N)c(NC(=O)CCNC(=O)c4cc(=O)c(O)cn4O)c3)CSC12)c1csc(N)n1)C(=O)O", "note": "(stereo partly shown) [Compound 12]", "MIC90": 64}
{"test_system": "K. pneumoniae β13", "test": "In vitro antibacterial activity test (broth microdilution)", "type": "cell-based", "conditions": "Klebsiella pneumoniae, K. pneumoniae β13; read-out: MIC90", "protocol": "as §1, §2, §3, §4", "units": {"MIC90": "µg/mL"}}
{"smiles": "CC(C)(O/N=C(\\C(=O)N[C@@H]1C(=O)N2C(C(=O)[O-])=C(/C=C/C[n+]3cnc(N)c(NC(=O)CCNC(=O)c4cc(=O)c(O)cn4O)c3)CSC12)c1csc(N)n1)C(=O)O", "note": "(stereo partly shown) [Compound 12]", "MIC90": "< 0.0625"}
{"test_system": "K. pneumoniae β14", "test": "In vitro antibacterial activity test (broth microdilution)", "type": "cell-based", "conditions": "Klebsiella pneumoniae, read-out: MIC90", "protocol": "as §1, §2, §3, §4", "units": {"MIC90": "µg/mL"}}
{"smiles": "CC(C)(O/N=C(\\C(=O)N[C@@H]1C(=O)N2C(C(=O)[O-])=C(/C=C/C[n+]3cnc(N)c(NC(=O)CCNC(=O)c4cc(=O)c(O)cn4O)c3)CSC12)c1csc(N)n1)C(=O)O", "note": "(stereo partly shown) [Compound 12]", "MIC90": 8}
{"test_system": "K. pneumoniae β9", "test": "In vitro antibacterial activity test (broth microdilution)", "type": "cell-based", "conditions": "Klebsiella pneumoniae, K. pneumoniae β9; read-out: MIC90", "protocol": "as §1, §2, §3, §4", "units": {"MIC90": "µg/mL"}}
{"smiles": "CC(C)(O/N=C(\\C(=O)N[C@@H]1C(=O)N2C(C(=O)[O-])=C(/C=C/C[n+]3cnc(N)c(NC(=O)CCNC(=O)c4cc(=O)c(O)cn4O)c3)CSC12)c1csc(N)n1)C(=O)O", "note": "(stereo partly shown) [Compound 12]", "MIC90": 0.25}
{"test_system": "M. catarrhalis 2524", "test": "In vitro antibacterial activity test (broth microdilution)", "type": "cell-based", "conditions": "Moraxella catarrhalis; M. catarrhalis 2524; read-out: MIC90", "protocol": "as §1, §2, §3, §4", "units": {"MIC90": "µg/mL"}}
{"smiles": "CC(C)(O/N=C(\\C(=O)N[C@@H]1C(=O)N2C(C(=O)[O-])=C(/C=C/C[n+]3cnc(N)c(NC(=O)CCNC(=O)c4cc(=O)c(O)cn4O)c3)CSC12)c1csc(N)n1)C(=O)O", "note": "(stereo partly shown) [Compound 12]", "MIC90": 1}
{"test_system": "P. aeruginosa 1912E", "test": "In vitro antibacterial activity test (broth microdilution)", "type": "cell-based", "conditions": "Pseudomonas aeruginosa, 1912E, read-out: MIC90", "protocol": "as §1, §2, §3, §4", "units": {"MIC90": "µg/mL"}}
{"smiles": "CC(C)(O/N=C(\\C(=O)N[C@@H]1C(=O)N2C(C(=O)[O-])=C(/C=C/C[n+]3cnc(N)c(NC(=O)CCNC(=O)c4cc(=O)c(O)cn4O)c3)CSC12)c1csc(N)n1)C(=O)O", "note": "(stereo partly shown) [Compound 12]", "MIC90": 1}
{"test_system": "P. aeruginosa 37", "test": "In vitro antibacterial activity test (broth microdilution)", "type": "cell-based", "conditions": "Pseudomonas aeruginosa, 37, P. aeruginosa 37; read-out: MIC90", "protocol": "as §1, §2, §3, §4", "units": {"MIC90": "µg/mL"}}
{"smiles": "CC(C)(O/N=C(\\C(=O)N[C@@H]1C(=O)N2C(C(=O)[O-])=C(/C=C/C[n+]3cnc(N)c(NC(=O)CCNC(=O)c4cc(=O)c(O)cn4O)c3)CSC12)c1csc(N)n1)C(=O)O", "note": "(stereo partly shown) [Compound 12]", "MIC90": 8}
{"test_system": "P. aeruginosa 40", "test": "In vitro antibacterial activity test (broth microdilution)", "type": "cell-based", "conditions": "Pseudomonas aeruginosa, 40, P. aeruginosa 40; read-out: MIC90", "protocol": "as §1, §2, §3, §4", "units": {"MIC90": "µg/mL"}}
{"smiles": "CC(C)(O/N=C(\\C(=O)N[C@@H]1C(=O)N2C(C(=O)[O-])=C(/C=C/C[n+]3cnc(N)c(NC(=O)CCNC(=O)c4cc(=O)c(O)cn4O)c3)CSC12)c1csc(N)n1)C(=O)O", "note": "(stereo partly shown) [Compound 12]", "MIC90": 1}
{"test_system": "P. aeruginosa 43", "test": "In vitro antibacterial activity test (broth microdilution)", "type": "cell-based", "conditions": "Pseudomonas aeruginosa; P. aeruginosa 43; read-out: MIC90", "protocol": "as §1, §2, §3, §4", "units": {"MIC90": "µg/mL"}}
{"smiles": "CC(C)(O/N=C(\\C(=O)N[C@@H]1C(=O)N2C(C(=O)[O-])=C(/C=C/C[n+]3cnc(N)c(NC(=O)CCNC(=O)c4cc(=O)c(O)cn4O)c3)CSC12)c1csc(N)n1)C(=O)O", "note": "(stereo partly shown) [Compound 12]", "MIC90": 1}
{"test_system": "P. aeruginosa 6065Y", "test": "In vitro antibacterial activity test (broth microdilution)", "type": "cell-based", "conditions": "Pseudomonas aeruginosa, read-out: MIC90", "protocol": "as §1, §2, §3, §4", "units": {"MIC90": "µg/mL"}}
{"smiles": "CC(C)(O/N=C(\\C(=O)N[C@@H]1C(=O)N2C(C(=O)[O-])=C(/C=C/C[n+]3cnc(N)c(NC(=O)CCNC(=O)c4cc(=O)c(O)cn4O)c3)CSC12)c1csc(N)n1)C(=O)O", "note": "(stereo partly shown) [Compound 12]", "MIC90": 2}
